Laboratory results: ChEMBL document CHEMBL4138123, “Design, synthesis and biological evaluation of novel pyrazolochalcones as potential modulators of PI3K/Akt/mTOR pathway and inducers of apoptosis in breast cancer cells” (Eur J Med Chem, 2017)

How the values were obtained:
Assay type in all cases: functional
NCI-H522 = assay: Cytotoxicity against human NCI-H522 cells assessed as cell growth at 10 uM after 48 hrs by sulforhodamine B assay relative to control; conditions: NCI-H522, 48 h, read-out: Activity
NCI-H226 [1] = assay: Cytotoxicity against human NCI-H226 cells assessed as cell growth at 0.01 uM after 48 hrs by sulforhodamine B assay relative to control; conditions: NCI-H226, 48 h, read-out: Activity
K562 = assay: Cytotoxicity against human K562 cells assessed as cell growth at 0.1 uM after 48 hrs by sulforhodamine B assay relative to control; conditions: K562, 48 h, read-out: Activity
SF-268 = assay: Cytotoxicity against human SF268 cells assessed as growth inhibition after 48 hrs by sulforhodamine B assay; conditions: SF-268, 48 h; for CC50: read-out: LC50 (the source's name)
OVCAR-8 = assay: Cytotoxicity against human OVCAR8 cells assessed as cell growth at 0.1 uM after 48 hrs by sulforhodamine B assay relative to control; conditions: OVCAR-8, 48 h, read-out: Activity
BT-549 = assay: Cytotoxicity against human BT549 cells assessed as growth inhibition after 48 hrs by sulforhodamine B assay; conditions: BT-549, 48 h
Hs-578T = assay: Cytotoxicity against human Hs 578T cells assessed as growth inhibition after 48 hrs by sulforhodamine B assay
A498 = assay: Cytotoxicity against human A498 cells assessed as cell growth at 100 uM after 48 hrs by sulforhodamine B assay relative to control; conditions: A498, 48 h, read-out: Activity
CCRF-CEM [2] = assay: Cytotoxicity against human CCRF-CEM cells assessed as cell growth at 0.01 uM after 48 hrs by sulforhodamine B assay relative to control; conditions: read-out: Activity
U-251 = assay: Cytotoxicity against human U251 cells assessed as growth inhibition after 48 hrs by sulforhodamine B assay; conditions: U-251, 48 h
PC-3 = assay: Cytotoxicity against human PC3 cells assessed as growth inhibition after 48 hrs by sulforhodamine B assay; conditions: PC-3, 48 h
NCI-H226 [3] = assay: Cytotoxicity against human NCI-H226 cells assessed as growth inhibition after 48 hrs by sulforhodamine B assay; conditions: NCI-H226, 48 h
UACC-257 [4] = assay: Cytotoxicity against human UACC257 cells assessed as cell growth at 1 uM after 48 hrs by sulforhodamine B assay relative to control; conditions: UACC-257, 48 h, read-out: Activity
KM12 [5] = assay: Cytotoxicity against human KM12 cells assessed as growth inhibition after 48 hrs by sulforhodamine B assay; conditions: KM12, 48 h
MDA-MB-435 = assay: Cytotoxicity against human MDA-MB-435 cells assessed as cell growth at 100 uM after 48 hrs by sulforhodamine B assay relative to control; conditions: MDA-MB-435, 48 h, read-out: Activity
786-0 = assay: Cytotoxicity against human 786-0 cells assessed as cell growth at 1 uM after 48 hrs by sulforhodamine B assay relative to control; conditions: 786-0, 48 h, read-out: Activity
HT-29 [6] = assay: Cytotoxicity against human HT-29 cells assessed as cell growth at 1 uM after 48 hrs by sulforhodamine B assay relative to control; conditions: HT-29, 48 h, read-out: Activity
HCT-116 = assay: Cytotoxicity against human HCT116 cells assessed as cell growth at 10 uM after 48 hrs by sulforhodamine B assay relative to control; conditions: HCT-116, 48 h, read-out: Activity
HT-29 [7] = assay: Cytotoxicity against human HT-29 cells assessed as cell growth at 10 uM after 48 hrs by sulforhodamine B assay relative to control; conditions: HT-29, 48 h, read-out: Activity
SK-OV-3 [8] = assay: Cytotoxicity against human SKOV3 cells assessed as cell growth at 0.1 uM after 48 hrs by sulforhodamine B assay relative to control; conditions: SK-OV-3, 48 h, read-out: Activity
UACC-257 [9] = assay: Cytotoxicity against human UACC257 cells assessed as cell growth at 0.1 uM after 48 hrs by sulforhodamine B assay relative to control; conditions: UACC-257, 48 h, read-out: Activity
SK-OV-3 [10] = assay: Cytotoxicity against human SKOV3 cells assessed as cell growth at 10 uM after 48 hrs by sulforhodamine B assay relative to control; conditions: SK-OV-3, 48 h, read-out: Activity
NCI/ADR-RES = assay: Cytotoxicity against human NCI/ADR-RES cells assessed as growth inhibition after 48 hrs by sulforhodamine B assay
OVCAR-5 = assay: Cytotoxicity against human OVCAR5 cells assessed as growth inhibition after 48 hrs by sulforhodamine B assay; conditions: OVCAR-5, 48 h
HT-29 [11] = assay: Cytotoxicity against human HT-29 cells assessed as cell growth at 0.01 uM after 48 hrs by sulforhodamine B assay relative to control; conditions: HT-29, 48 h, read-out: Activity
RXF 393 [12] = assay: Cytotoxicity against human RXF393 cells assessed as cell growth at 0.01 uM after 48 hrs by sulforhodamine B assay relative to control; conditions: RXF 393, 48 h, read-out: Activity
RXF 393 [13] = assay: Cytotoxicity against human RXF393 cells assessed as cell growth at 100 uM after 48 hrs by sulforhodamine B assay relative to control; conditions: RXF 393, 48 h, read-out: Activity
MDA-MB-231 = assay: Cytotoxicity against human MDA-MB-231 cells assessed as cell growth at 0.1 uM after 48 hrs by sulforhodamine B assay relative to control; conditions: MDA-MB-231, 48 h, read-out: Activity
CCRF-CEM [14] = assay: Cytotoxicity against human CCRF-CEM cells assessed as cell growth at 0.1 uM after 48 hrs by sulforhodamine B assay relative to control; conditions: read-out: Activity
HT-29 [15] = assay: Cytotoxicity against human HT-29 cells assessed as growth inhibition after 48 hrs by sulforhodamine B assay; conditions: HT-29, 48 h
SNB-19 = assay: Cytotoxicity against human SNB19 cells assessed as cell growth at 0.01 uM after 48 hrs by sulforhodamine B assay relative to control; conditions: SNB-19, 48 h, read-out: Activity
KM12 [16] = assay: Cytotoxicity against human KM12 cells assessed as cell growth at 10 uM after 48 hrs by sulforhodamine B assay relative to control; conditions: KM12, 48 h, read-out: Activity
KM12 [17] = assay: Cytotoxicity against human KM12 cells assessed as cell growth at 1 uM after 48 hrs by sulforhodamine B assay relative to control; conditions: KM12, 48 h, read-out: Activity
RXF 393 [18] = assay: Cytotoxicity against human RXF393 cells assessed as cell growth at 1 uM after 48 hrs by sulforhodamine B assay relative to control; conditions: RXF 393, 48 h, read-out: Activity
RPMI-8226 = assay: Cytotoxicity against human RPMI8226 cells assessed as cell growth at 10 uM after 48 hrs by sulforhodamine B assay relative to control; conditions: RPMI-8226, 48 h, read-out: Activity
UACC-62 = assay: Cytotoxicity against human UACC62 cells assessed as cell growth at 1 uM after 48 hrs by sulforhodamine B assay relative to control; conditions: UACC-62, 48 h, read-out: Activity

## COc1ccc(C(=O)/C=C/c2cc(-c3cc(OC)c(OC)c(OC)c3)n[nH]2)cc1OC
NCI-H522
  growth at 10 µM: -95%
NCI-H226 [1]
  growth at 0.01 µM: 98%
K562
  growth at 0.1 µM: 92%
SF-268
  TGI: 3.96 µM
  CC50: 8.59 µM
OVCAR-8
  growth at 0.1 µM: 92%
BT-549
  LC50 (concentration killing 50% of cells): 5.87 µM
  TGI: 2.9 µM
Hs-578T
  LC50: > 100 µM
  TGI: 8.2 µM
A498
  growth at 100 µM: -96%
CCRF-CEM [2]
  growth at 0.01 µM: 95%
U-251
  LC50: 4.99 µM
  TGI: 2.48 µM
PC-3
  LC50: 5.76 µM
  TGI: 2.8 µM
NCI-H226 [3]
  TGI: 3.32 µM
UACC-257 [4]
  growth at 1 µM: 81%
KM12 [5]
  LC50: 5.43 µM
  TGI: 2.41 µM
MDA-MB-435
  growth at 100 µM: -73%
786-0
  growth at 1 µM: 74%
HT-29 [6]
  growth at 1 µM: 88%
HCT-116
  growth at 10 µM: -65%
HT-29 [7]
  growth at 10 µM: -94%
SK-OV-3 [8]
  growth at 0.1 µM: 105%
UACC-257 [9]
  growth at 0.1 µM: 89%
SK-OV-3 [10]
  growth at 10 µM: -12%
NCI/ADR-RES
  LC50: > 100 µM
  TGI: 15.7 µM
OVCAR-5
  LC50: 5.75 µM
  TGI: 3.03 µM
HT-29 [11]
  growth at 0.01 µM: 100%
RXF 393 [12]
  growth at 0.01 µM: 100%
RXF 393 [13]
  growth at 100 µM: -98%
MDA-MB-231
  growth at 0.1 µM: 101%
CCRF-CEM [14]
  growth at 0.1 µM: 94%
HT-29 [15]
  LC50: 5.75 µM
  TGI: 3.05 µM
SNB-19
  growth at 0.01 µM: 91%
KM12 [16]
  growth at 10 µM: -87%
KM12 [17]
  growth at 1 µM: 54%
RXF 393 [18]
  growth at 1 µM: 72%
RPMI-8226
  growth at 10 µM: -50%
UACC-62
  growth at 1 µM: 95%

## COc1cc(-c2cc(/C=C/C(=O)c3ccc(Cl)c(Cl)c3)[nH]n2)cc(OC)c1OC
NCI-H522
  growth at 10 µM: -72%
NCI-H226 [1]
  growth at 0.01 µM: 103%
K562
  growth at 0.1 µM: 106%
SF-268
  TGI: 63.3 µM
  CC50: > 100 µM
OVCAR-8
  growth at 0.1 µM: 97%
BT-549
  LC50 (concentration killing 50% of cells): 92.6 µM
  TGI: 29.3 µM
Hs-578T
  LC50: > 100 µM
  TGI: > 100 µM
A498
  growth at 100 µM: -25%
CCRF-CEM [2]
  growth at 0.01 µM: 98%
U-251
  LC50: > 100 µM
  TGI: 80.5 µM
PC-3
  LC50: > 100 µM
  TGI: > 100 µM
NCI-H226 [3]
  LC50 (concentration killing 50% of cells): > 100 µM
  TGI: > 100 µM
UACC-257 [4]
  growth at 1 µM: 90%
KM12 [5]
  LC50: > 100 µM
  TGI: > 100 µM
MDA-MB-435
  growth at 100 µM: 6%
786-0
  growth at 1 µM: 91%
HT-29 [6]
  growth at 1 µM: 96%
HCT-116
  growth at 10 µM: 16%
HT-29 [7]
  growth at 10 µM: 53%
SK-OV-3 [8]
  growth at 0.1 µM: 104%
UACC-257 [9]
  growth at 0.1 µM: 96%
SK-OV-3 [10]
  growth at 10 µM: 26%
NCI/ADR-RES
  LC50: > 100 µM
  TGI: > 100 µM
OVCAR-5
  LC50: > 100 µM
  TGI: > 100 µM
HT-29 [11]
  growth at 0.01 µM: 100%
RXF 393 [12]
  growth at 0.01 µM: 96%
RXF 393 [13]
  growth at 100 µM: -71%
MDA-MB-231
  growth at 0.1 µM: 102%
CCRF-CEM [14]
  growth at 0.1 µM: 98%
HT-29 [15]
  LC50: > 100 µM
  TGI: > 100 µM
SNB-19
  growth at 0.01 µM: 100%
KM12 [16]
  growth at 10 µM: 19%
KM12 [17]
  growth at 1 µM: 85%
RXF 393 [18]
  growth at 1 µM: 81%
RPMI-8226
  growth at 10 µM: -7%
UACC-62
  growth at 1 µM: 96%
